In patent US9409905B2, “Antibacterial compounds and methods for use” (PTC THERAPEUTICS, INC., priority 2011, dated 2016):
≈ marks a conversion by molar mass, not a printed value.

How the values were obtained:
[1] = test system: E. coli LZ3111; experiment: Antibacterial activity, MIC, quinolone resistant strain (Table 2); type: cell-based; conditions: Escherichia coli, LZ3111, read-out: MIC LZ3111
Summary of the method: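 Microbroth dilution method; MIC (μg/mL) is the lowest drug concentration preventing macroscopically visible growth under test conditions.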

[2] = test system: Staphylococcus aureus (S. aureus) 29213; experiment: Antibacterial activity, microbroth dilution MIC (Table 1); type: cell-based; conditions: microbroth dilution, Gram-positive S. aureus 29213, read-out: MIC, 29213
Summary of the method: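 Read-out: visual absence of growth. The lowest concentration meeting this gives the MIC, expressed in μg/mL, with microbroth dilution as the method.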

[3] = test system: Escherichia coli (E. coli) BAS849; experiment: as above; type: cell-based; conditions: microbroth dilution, super sensitive Gram-negative E. coli BAS849, read-out: MIC, BAS849
Summary of the method: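 Broth microdilution against S. aureus 29213, E. coli 25922 and hypersensitive E. coli BAS849. MIC in μg/mL is the lowest drug concentration preventing macroscopically visible growth under test conditions.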

[4] = test system: E. coli 25922; experiment: as above; type: cell-based, Escherichia coli; conditions: Escherichia coli; microbroth dilution; control Gram-negative E. coli 25922 strain; read-out: MIC, 25922
Summary of the method: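 Potency is reported as minimum inhibitory concentration in μg/mL, determined by broth microdilution as the lowest level of compound that stops growth visible to the eye.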

Row | Compound | MIC [1] [mg/L] | MIC [2] [mg/L] | MIC [3] [mg/L] | MIC [4] [mg/L]
1 | CCc1cc(C(=O)O)c(=O)[nH]c1-c1ccc2c(c1)N(C)CCN2C [Cpd 56, 6-(1,4-dimethyl-1,2,3,4-tetrahydroquinoxalin-6-yl)-5-ethyl-2-oxo-1,2-dihydropyridine-3-carboxylic acid] | 12.5 to 150 (≈ 38.2 to 458 µM) | 12.5 to 150 (≈ 38.2 to 458 µM) | 3.5 to 12.5 (≈ 10.7 to 38.2 µM) | 12.5 to 150 (≈ 38.2 to 458 µM)
2 | CCc1c(-c2ccc3c(c2)cc(CN[C@@H](C)c2ccccc2)n3C)[nH]c(=O)c(C(=O)O)c1O.Cl [Cpd 216, (S)-5-ethyl-4-hydroxy-6-(1-methyl-2-((1-phenylethylamino)methyl)-1H-indol-5-yl)-2-oxo-1,2-dihydropyridine-3-carboxylic acid hydrochloride] | 12.5 to 150 | 1 to 3.5 | < 1 | 1 to 3.5
3 | CCc1c(-c2ccc3c(c2)cc(CNCc2ccccc2C)n3C)[nH]c(=O)c(C(=O)O)c1O [Cpd 295, 5-ethyl-4-hydroxy-6-(1-methyl-2-((2-methylbenzylamino)methyl)-1H-indol-5-yl)-2-oxo-1,2-dihydropyridine-3-carboxylic acid] | 12.5 to 150 (≈ 28.1 to 337 µM) | 1 to 3.5 (≈ 2.24 to 7.86 µM) | < 1 | 3.5 to 12.5 (≈ 7.86 to 28.1 µM)
4 | CCc1cc(C(=O)O)c(=O)[nH]c1-c1ccc2c(ccn2CCO)c1 [Cpd 23, 5-ethyl-6-(1-(2-hydroxyethyl)-1H-indol-5-yl)-2-oxo-1,2-dihydropyridine-3-carboxylic acid] | 12.5 to 150 (≈ 38.3 to 460 µM) | 12.5 to 150 (≈ 38.3 to 460 µM) | < 1 | 3.5 to 12.5 (≈ 10.7 to 38.3 µM)
5 | CCc1cc(C(=O)O)c(=O)[nH]c1-c1ccc2c(c1)c(CN(CC)CC)cn2C [Cpd 76, 6-(3-((diethylamino)methyl)-1-methyl-1H-indol-5-yl)-5-ethyl-2-oxo-1,2-dihydropyridine-3-carboxylic acid] | 12.5 to 150 (≈ 32.8 to 393 µM) | 12.5 to 150 (≈ 32.8 to 393 µM) | 12.5 to 150 (≈ 32.8 to 393 µM) | 12.5 to 150 (≈ 32.8 to 393 µM)
6 | CCc1cc(C(=O)O)c(=O)[nH]c1-c1cc(C)c2c(c1)cc(CN1CCCC1)n2C [Cpd 99, 6-(1,7-dimethyl-2-(pyrrolidin-1-ylmethyl)-1H-indol-5-yl)-5-ethyl-2-oxo-1,2-dihydropyridine-3-carboxylic acid] | 12.5 to 150 (≈ 31.8 to 381 µM) | 12.5 to 150 (≈ 31.8 to 381 µM) | < 1 | 3.5 to 12.5 (≈ 8.89 to 31.8 µM)
7 | CCc1cc(C(=O)O)c(=O)[nH]c1-c1cc2cc(C(=O)O)n(C)c2cn1 [Cpd 54, 5-(5-carboxy-3-ethyl-6-oxo-1,6-dihydropyridin-2-yl)-1-methyl-1H-pyrrolo[2,3-c]pyridine-2-carboxylic acid] | 12.5 to 150 (≈ 36.6 to 439 µM) | 12.5 to 150 (≈ 36.6 to 439 µM) | 1 to 3.5 (≈ 2.93 to 10.3 µM) | 12.5 to 150 (≈ 36.6 to 439 µM)
8 | CCc1cc(C(=O)O)c(=O)[nH]c1-c1ccc2c(c1)cc(CN1CCC(NC)C1)n2C (centres unmarked) [Cpd 127, 5-ethyl-6-(1-methyl-2-((3-(methylamino)pyrrolidin-1-yl)methyl)-1H-indol-5-yl)-2-oxo-1,2-dihydropyridine-3-carboxylic acid] | 12.5 to 150 (≈ 30.6 to 367 µM) | 12.5 to 150 (≈ 30.6 to 367 µM) | 1 to 3.5 (≈ 2.45 to 8.57 µM) | 12.5 to 150 (≈ 30.6 to 367 µM)
9 | CCc1c(-c2ccc3c(c2)cc(CN(C)C)n3C)[nH]c(=O)c(C(=O)O)c1N [Cpd 330, 4-amino-6-(2-((dimethylamino)methyl)-1-methyl-1H-indol-5-yl)-5-ethyl-2-oxo-1,2-dihydropyridine-3-carboxylic acid] | 12.5 to 150 (≈ 33.9 to 407 µM) | 12.5 to 150 (≈ 33.9 to 407 µM) | < 1 | 3.5 to 12.5 (≈ 9.5 to 33.9 µM)
10 | Cn1c(CN2CCCC2)cc2cc(-c3cc(O)c(C(=O)O)c(=O)[nH]3)ccc21 [Cpd 327, 4-hydroxy-6-(1-methyl-2-(pyrrolidin-1-ylmethyl)-1H-indol-5-yl)-2-oxo-1,2-dihydropyridine-3-carboxylic acid] | 12.5 to 150 (≈ 34 to 408 µM) | 12.5 to 150 (≈ 34 to 408 µM) | 3.5 to 12.5 (≈ 9.53 to 34 µM) | 12.5 to 150 (≈ 34 to 408 µM)
11 | CCc1cc(C(=O)O)c(=O)[nH]c1-c1cc(C)c2c(c1)cc(CN1CCOCC1)n2C [Cpd 103, 6-(1,7-dimethyl-2-(morpholinomethyl)-1H-indol-5-yl)-5-ethyl-2-oxo-1,2-dihydropyridine-3-carboxylic acid] | 12.5 to 150 (≈ 30.5 to 366 µM) | 12.5 to 150 (≈ 30.5 to 366 µM) | < 1 | 12.5 to 150 (≈ 30.5 to 366 µM)
12 | CCc1c(-c2ccc3c(c2)cc(CNCCNC)n3C)[nH]c(=O)c(C(=O)O)c1O [Cpd 204, 5-ethyl-4-hydroxy-6-(1-methyl-2-((2-(methylamino)ethylamino)methyl)-1H-indol-5-yl)-2-oxo-1,2-dihydropyridine-3-carboxylic acid] | 12.5 to 150 (≈ 31.4 to 376 µM) | 12.5 to 150 (≈ 31.4 to 376 µM) | 1 to 3.5 (≈ 2.51 to 8.78 µM) | 3.5 to 12.5 (≈ 8.78 to 31.4 µM)
13 | CCc1c(-c2ccc3c(c2)cc(CNCc2cccc(OC)c2)n3C)[nH]c(=O)c(C(=O)O)c1O [Cpd 296, 5-ethyl-4-hydroxy-6-(2-((3-methoxybenzylamino)methyl)-1-methyl-1H-indol-5-yl)-2-oxo-1,2-dihydropyridine-3-carboxylic acid] | 12.5 to 150 (≈ 27.1 to 325 µM) | 3.5 to 12.5 (≈ 7.58 to 27.1 µM) | < 1 | < 1
14 | CCc1c(-c2ccc3c(c2)cc(CN[C@H](C)c2ccccc2)n3C)[nH]c(=O)c(C(=O)O)c1O.Cl [Cpd 215, (R)-5-ethyl-4-hydroxy-6-(1-methyl-2-((1-phenylethylamino)methyl)-1H-indol-5-yl)-2-oxo-1,2-dihydropyridine-3-carboxylic acid hydrochloride] | 12.5 to 150 | 1 to 3.5 | < 1 | 1 to 3.5
15 | CCc1cc(C(=O)O)c(=O)[nH]c1-c1cc2cc(CN3CCOCC3)n(C)c2cc1Cl [Cpd 91, 6-(6-chloro-1-methyl-2-(morpholinomethyl)-1H-indol-5-yl)-5-ethyl-2-oxo-1,2-dihydropyridine-3-carboxylic acid] | 12.5 to 150 (≈ 29.1 to 349 µM) | 12.5 to 150 (≈ 29.1 to 349 µM) | 12.5 to 150 (≈ 29.1 to 349 µM) | 12.5 to 150 (≈ 29.1 to 349 µM)
16 | CCc1cc(C(=O)O)c(=O)[nH]c1-c1ccc2ccn(C)c2c1 [Cpd 7, 5-ethyl-6-(1-methyl-1H-indol-6-yl)-2-oxo-1,2-dihydropyridine-3-carboxylic acid] | 12.5 to 150 (≈ 42.2 to 506 µM) | 12.5 to 150 (≈ 42.2 to 506 µM) | 1 to 3.5 (≈ 3.37 to 11.8 µM) | 12.5 to 150 (≈ 42.2 to 506 µM)
17 | CCc1c(-c2ccc3c(c2)cc(CN(C)CCOC)n3C)[nH]c(=O)c(C(=O)O)c1O [Cpd 300, 5-ethyl-4-hydroxy-6-(2-(((2-methoxyethyl)(methyl)amino)methyl)-1-methyl-1H-indol-5-yl)-2-oxo-1,2-dihydropyridine-3-carboxylic acid] | 12.5 to 150 (≈ 30.2 to 363 µM) | 12.5 to 150 (≈ 30.2 to 363 µM) | < 1 | 3.5 to 12.5 (≈ 8.46 to 30.2 µM)
18 | CCc1c(-c2ccc3c(c2)c(Cl)cn3C)[nH]c(=O)c(C(=O)O)c1O [Cpd 363, 6-(3-chloro-1-methyl-1H-indol-5-yl)-5-ethyl-4-hydroxy-2-oxo-1,2-dihydropyridine-3-carboxylic acid] | 1 to 3.5 (≈ 2.88 to 10.1 µM) | 1 to 3.5 (≈ 2.88 to 10.1 µM) | < 1 | 12.5 to 150 (≈ 36 to 433 µM)
19 | CCc1cc(C(=O)O)c(=O)[nH]c1-c1ccc2c(c1)cc(C1CNCCN1)n2C.Cl.Cl (centres unmarked) [Cpd 70, 5-ethyl-6-(1-methyl-2-(piperazin-2-yl)-1H-indol-5-yl)-2-oxo-1,2-dihydropyridine-3-carboxylic acid dihydrochloride] | 12.5 to 150 | 12.5 to 150 | 3.5 to 12.5 | 12.5 to 150
20 | CCc1c(-c2ccc3c(c2)cc(CN2CC(C(=O)N(C)C)C2)n3C)[nH]c(=O)c(C(=O)O)c1O [Cpd 270, 6-(2-((3-(dimethylcarbamoyl)azetidin-1-yl)methyl)-1-methyl-1H-indol-5-yl)-5-ethyl-4-hydroxy-2-oxo-1,2-dihydropyridine-3-carboxylic acid] | 12.5 to 150 (≈ 27.6 to 331 µM) | 3.5 to 12.5 (≈ 7.73 to 27.6 µM) | < 1 | 3.5 to 12.5 (≈ 7.73 to 27.6 µM)
21 | CCc1cc(C(=O)O)c(=O)[nH]c1-c1ccc2c(c1)cc1n2CCC1N1CCCC1 (centres unmarked) [Cpd 151, 5-ethyl-2-oxo-6-(1-(pyrrolidin-1-yl)-2,3-dihydro-1H-pyrrolo[1,2-a]indol-7-yl)-1,2-dihydropyridine-3-carboxylic acid] | 12.5 to 150 (≈ 31.9 to 383 µM) | 12.5 to 150 (≈ 31.9 to 383 µM) | < 1 | 1 to 3.5 (≈ 2.55 to 8.94 µM)
22 | CCc1cc(C(=O)O)c(=O)[nH]c1-c1ccc2c(c1)cc(C(C)(C)N1CCCC1)n2C [Cpd 88, 5-ethyl-6-(1-methyl-2-(2-(pyrrolidin-1-yl)propan-2-yl)-1H-indol-5-yl)-2-oxo-1,2-dihydropyridine-3-carboxylic acid] | 12.5 to 150 (≈ 30.7 to 368 µM) | 12.5 to 150 (≈ 30.7 to 368 µM) | < 1 | 3.5 to 12.5 (≈ 8.59 to 30.7 µM)
23 | CCc1cc(C(=O)O)c(=O)[nH]c1-c1ccc2c(c1)cc(CNCc1ccccc1)n2C [Cpd 114, 6-(2-((benzylamino)methyl)-1-methyl-1H-indol-5-yl)-5-ethyl-2-oxo-1,2-dihydropyridine-3-carboxylic acid] | 12.5 to 150 (≈ 30.1 to 361 µM) | 3.5 to 12.5 (≈ 8.42 to 30.1 µM) | < 1 | < 1
24 | CCc1c(-c2ccc3c(c2)cc(CNC2CCNCC2)n3C)[nH]c(=O)c(C(=O)O)c1O [Cpd 263, 5-ethyl-4-hydroxy-6-(1-methyl-2-((piperidin-4-ylamino)methyl)-1H-indol-5-yl)-2-oxo-1,2-dihydropyridine-3-carboxylic acid] | 12.5 to 150 (≈ 29.4 to 353 µM) | 12.5 to 150 (≈ 29.4 to 353 µM) | 3.5 to 12.5 (≈ 8.24 to 29.4 µM) | 12.5 to 150 (≈ 29.4 to 353 µM)
25 | CCc1cc(C(=O)O)c(=O)[nH]c1-c1ccc2c(c1)cc(C1CCNC1)n2C.Cl (centres unmarked) [Cpd 156, 5-ethyl-6-(1-methyl-2-(pyrrolidin-3-yl)-1H-indol-5-yl)-2-oxo-1,2-dihydropyridine-3-carboxylic acid hydrochloride] | 12.5 to 150 | 12.5 to 150 | 3.5 to 12.5 | 12.5 to 150
26 | CCc1c(-c2ccc3c(c2)cc(CN2CCCC2)n3C)[nH]c(=O)c(C(=O)O)c1N [Cpd 329, 4-amino-5-ethyl-6-(1-methyl-2-(pyrrolidin-1-ylmethyl)-1H-indol-5-yl)-2-oxo-1,2-dihydropyridine-3-carboxylic acid] | 12.5 to 150 (≈ 31.7 to 380 µM) | 12.5 to 150 (≈ 31.7 to 380 µM) | < 1 | 3.5 to 12.5 (≈ 8.87 to 31.7 µM)
